# Results published in patent publication US20090137664A1, “SAURURUS CERNUUS COMPOUNDS THAT INHIBIT CELLULAR RESPONSES TO HYPOXIA” (priority 2003, published 2009).
# Columns and labels:
# secreted VEGF protein = experiment: induction of secreted VEGF protein by 1,10-phenanthroline in T47D cells (ELISA); assay type: cell-based, human; settings: T47D, 1,10-phenanthroline 10 μM, 16 hr
# Procedure: Cell plating and compound treatment is similar to those described earlier for hypoxic conditions. […] At the end of the incubation, the concentration of secreted VEGF protein in the conditioned media is determined by ELISA and the data normalized by the number of viable cells.
# K-562 = experiment: NCI in vitro cell line screen (SRB), Leukemia K-562; assay type: cell-based
# Procedure: (§1) For exemplary purposes, an embodiment of the present invention was tested for activity with respect to certain cancer cell lines. The following Tables show results from in vitro 60-cell line antitumor testing from the US National Cancer Institute Developmental Therapeutics Program (NCI-DTP) on compound 2. The testing was in connection with the NCI's In Vitro Cell Line Screening Project (IVCLSP). Detailed information regarding the experiments and their interpretation is available from the NCI.
# EKVX = experiment: NCI in vitro cell line screen (SRB), Non-Small Cell Lung Cancer EKVX; assay type: cell-based
# Procedure: as §1
# KM12 = experiment: NCI in vitro cell line screen (SRB), Colon Cancer KM12; assay type: cell-based
# Procedure: as §1
# SW-620 = experiment: NCI in vitro cell line screen (SRB), Colon Cancer SW-620; assay type: cell-based
# Procedure: as §1
# U251 = experiment: NCI in vitro cell line screen (SRB), CNS Cancer U251; assay type: cell-based
# Procedure: as §1
# LOX IMVI = experiment: NCI in vitro cell line screen (SRB), Melanoma LOX IMVI; assay type: cell-based
# Procedure: as §1
# 786-0 = experiment: NCI in vitro cell line screen (SRB), Renal Cancer 786-0; assay type: cell-based
# Procedure: as §1
# ACHN = experiment: NCI in vitro cell line screen (SRB), Renal Cancer ACHN; assay type: cell-based
# Procedure: as §1
# DU-145 = experiment: NCI in vitro cell line screen (SRB), Prostate Cancer DU-145; assay type: cell-based
# Procedure: as §1
# MCF7 = experiment: NCI in vitro cell line screen (SRB), Breast Cancer MCF7; assay type: cell-based
# Procedure: as §1
# HS 578T = experiment: NCI in vitro cell line screen (SRB), Breast Cancer HS 578T; assay type: cell-based
# Procedure: as §1
# [1] = Homo sapiens, read-out: LC50 (the source's name)
compound,measurement,setting,value
"COc1ccc([C@@H](O)[C@@H](C)Oc2ccc([C@H]3O[C@H](c4ccc(O[C@H](C)[C@H](O)c5ccc6c(c5)OCO6)c(OC)c4)[C@H](C)[C@H]3C)cc2OC)cc1OC [Compound 2, manassantin B]","effect on the induction of secreted VEGF protein by 1,10-phenanthroline",secreted VEGF protein,does not effect
same,TGI,K-562,>1.00E−4 Molar
same,LC50 (concentration killing 50% of cells),"K-562; Homo sapiens, K562",> 100 µM
same,Mean Optical Densities,K-562; Log10 Concentration −4.0 Molar,0.327
same,Percent Growth,K-562; Log10 Concentration −4.0 Molar,28%
same,Mean Optical Densities,K-562; Log10 Concentration −5.0 Molar,0.394
same,Percent Growth,K-562; Log10 Concentration −5.0 Molar,37%
same,Mean Optical Densities,K-562; Log10 Concentration −6.0 Molar,0.561
same,Percent Growth,K-562; Log10 Concentration −6.0 Molar,61%
same,Mean Optical Densities,K-562; Log10 Concentration −7.0 Molar,0.500
same,Percent Growth,K-562; Log10 Concentration −7.0 Molar,53%
same,Mean Optical Densities,K-562; Log10 Concentration −8.0 Molar,0.470
same,Percent Growth,K-562; Log10 Concentration −8.0 Molar,48%
same,TGI,EKVX,8.25E−5 Molar
same,GI50,EKVX; Homo sapiens,2.51 µM
same,CC50,EKVX; [1],> 100 µM
same,Mean Optical Densities,EKVX; Log10 Concentration −4.0 Molar,0.970
same,Percent Growth,EKVX; Log10 Concentration −4.0 Molar,−2%
same,Mean Optical Densities,EKVX; Log10 Concentration −5.0 Molar,1.180
same,Percent Growth,EKVX; Log10 Concentration −5.0 Molar,25%
same,Mean Optical Densities,EKVX; Log10 Concentration −6.0 Molar,1.479
same,Percent Growth,EKVX; Log10 Concentration −6.0 Molar,66%
same,Mean Optical Densities,EKVX; Log10 Concentration −7.0 Molar,1.478
same,Percent Growth,EKVX; Log10 Concentration −7.0 Molar,66%
same,Mean Optical Densities,EKVX; Log10 Concentration −8.0 Molar,1.447
same,Percent Growth,EKVX; Log10 Concentration −8.0 Molar,62%
same,TGI,KM12,>1.00E−4 Molar
same,GI50,KM12; Homo sapiens,7.78 µM
same,CC50,KM12; [1],> 100 µM
same,Mean Optical Densities,KM12; Log10 Concentration −4.0 Molar,1.287
same,Percent Growth,KM12; Log10 Concentration −4.0 Molar,50%
same,Mean Optical Densities,KM12; Log10 Concentration −5.0 Molar,1.205
same,Percent Growth,KM12; Log10 Concentration −5.0 Molar,44%
same,Mean Optical Densities,KM12; Log10 Concentration −6.0 Molar,1.983
same,Percent Growth,KM12; Log10 Concentration −6.0 Molar,98%
same,Mean Optical Densities,KM12; Log10 Concentration −7.0 Molar,1.876
same,Percent Growth,KM12; Log10 Concentration −7.0 Molar,90%
same,Mean Optical Densities,KM12; Log10 Concentration −8.0 Molar,1.960
same,Percent Growth,KM12; Log10 Concentration −8.0 Molar,96%
same,TGI,SW-620,>1.00E−4 Molar
same,GI50,SW-620; Homo sapiens,6.51 µM
same,CC50,SW-620; [1],> 100 µM
same,Mean Optical Densities,SW-620; Log10 Concentration −4.0 Molar,0.396
same,Percent Growth,SW-620; Log10 Concentration −4.0 Molar,25%
same,Mean Optical Densities,SW-620; Log10 Concentration −5.0 Molar,0.544
same,Percent Growth,SW-620; Log10 Concentration −5.0 Molar,42%
same,Mean Optical Densities,SW-620; Log10 Concentration −6.0 Molar,0.949
same,Percent Growth,SW-620; Log10 Concentration −6.0 Molar,87%
same,Mean Optical Densities,SW-620; Log10 Concentration −7.0 Molar,1.012
same,Percent Growth,SW-620; Log10 Concentration −7.0 Molar,94%
same,Mean Optical Densities,SW-620; Log10 Concentration −8.0 Molar,0.955
same,Percent Growth,SW-620; Log10 Concentration −8.0 Molar,88%
same,TGI,U251,7.27E−5 Molar
same,GI50,"U251; Homo sapiens, U-251",< 0.01 µM
same,CC50,"U251; Homo sapiens, U-251, read-out: LC50 (the source's name)",> 100 µM
same,Mean Optical Densities,U251; Log10 Concentration −4.0 Molar,0.267
same,Percent Growth,U251; Log10 Concentration −4.0 Molar,−2%
same,Mean Optical Densities,U251; Log10 Concentration −5.0 Molar,0.335
same,Percent Growth,U251; Log10 Concentration −5.0 Molar,15%
same,Mean Optical Densities,U251; Log10 Concentration −6.0 Molar,0.418
same,Percent Growth,U251; Log10 Concentration −6.0 Molar,35%
same,Mean Optical Densities,U251; Log10 Concentration −7.0 Molar,0.444
same,Percent Growth,U251; Log10 Concentration −7.0 Molar,41%
same,Mean Optical Densities,U251; Log10 Concentration −8.0 Molar,0.443
same,Percent Growth,U251; Log10 Concentration −8.0 Molar,41%
same,TGI,LOX IMVI,>1.00E−4 Molar
same,GI50,LOX IMVI; Homo sapiens,2.19 µM
same,CC50,LOX IMVI; [1],> 100 µM
same,Mean Optical Densities,LOX IMVI; Log10 Concentration −4.0 Molar,0.353
same,Percent Growth,LOX IMVI; Log10 Concentration −4.0 Molar,12%
same,Mean Optical Densities,LOX IMVI; Log10 Concentration −5.0 Molar,0.396
same,Percent Growth,LOX IMVI; Log10 Concentration −5.0 Molar,18%
same,Mean Optical Densities,LOX IMVI; Log10 Concentration −6.0 Molar,0.703
same,Percent Growth,LOX IMVI; Log10 Concentration −6.0 Molar,66%
same,Mean Optical Densities,LOX IMVI; Log10 Concentration −7.0 Molar,0.743
same,Percent Growth,LOX IMVI; Log10 Concentration −7.0 Molar,73%
same,Mean Optical Densities,LOX IMVI; Log10 Concentration −8.0 Molar,0.778
same,Percent Growth,LOX IMVI; Log10 Concentration −8.0 Molar,78%
same,TGI,786-0,>1.00E−4 Molar
same,GI50,786-0; Homo sapiens,7.74 µM
same,CC50,786-0; [1],> 100 µM
same,Mean Optical Densities,786-0; Log10 Concentration −4.0 Molar,0.806
same,Percent Growth,786-0; Log10 Concentration −4.0 Molar,38%
same,Mean Optical Densities,786-0; Log10 Concentration −5.0 Molar,0.888
same,Percent Growth,786-0; Log10 Concentration −5.0 Molar,46%
same,Mean Optical Densities,786-0; Log10 Concentration −6.0 Molar,1.309
same,Percent Growth,786-0; Log10 Concentration −6.0 Molar,84%
same,Mean Optical Densities,786-0; Log10 Concentration −7.0 Molar,1.361
same,Percent Growth,786-0; Log10 Concentration −7.0 Molar,89%
same,Mean Optical Densities,786-0; Log10 Concentration −8.0 Molar,1.398
same,Percent Growth,786-0; Log10 Concentration −8.0 Molar,92%
same,TGI,ACHN,5.02E−5 Molar
same,GI50,ACHN; Homo sapiens,1.82 µM
same,CC50,ACHN; [1],> 100 µM
same,Mean Optical Densities,ACHN; Log10 Concentration −4.0 Molar,0.297
same,Percent Growth,ACHN; Log10 Concentration −4.0 Molar,−5%
same,Mean Optical Densities,ACHN; Log10 Concentration −5.0 Molar,0.351
same,Percent Growth,ACHN; Log10 Concentration −5.0 Molar,11%
same,Mean Optical Densities,ACHN; Log10 Concentration −6.0 Molar,0.554
same,Percent Growth,ACHN; Log10 Concentration −6.0 Molar,64%
same,Mean Optical Densities,ACHN; Log10 Concentration −7.0 Molar,0.644
same,Percent Growth,ACHN; Log10 Concentration −7.0 Molar,88%
same,Mean Optical Densities,ACHN; Log10 Concentration −8.0 Molar,0.590
same,Percent Growth,ACHN; Log10 Concentration −8.0 Molar,73%
same,TGI,DU-145,>1.00E−4 Molar
same,GI50,DU-145; Homo sapiens,10.6 µM
same,CC50,DU-145; [1],> 100 µM
same,Mean Optical Densities,DU-145; Log10 Concentration −4.0 Molar,0.487
same,Percent Growth,DU-145; Log10 Concentration −4.0 Molar,28%
same,Mean Optical Densities,DU-145; Log10 Concentration −5.0 Molar,0.623
same,Percent Growth,DU-145; Log10 Concentration −5.0 Molar,51%
same,Mean Optical Densities,DU-145; Log10 Concentration −6.0 Molar,0.800
same,Percent Growth,DU-145; Log10 Concentration −6.0 Molar,81%
same,Mean Optical Densities,DU-145; Log10 Concentration −7.0 Molar,0.831
same,Percent Growth,DU-145; Log10 Concentration −7.0 Molar,86%
same,Mean Optical Densities,DU-145; Log10 Concentration −8.0 Molar,0.817
same,Percent Growth,DU-145; Log10 Concentration −8.0 Molar,83%
same,TGI,MCF7,9.51E−6 Molar
same,GI50,MCF7; Homo sapiens,0.36 µM
same,CC50,MCF7; [1],> 100 µM
same,Mean Optical Densities,MCF7; Log10 Concentration −4.0 Molar,0.191
same,Percent Growth,MCF7; Log10 Concentration −4.0 Molar,−40%
same,Mean Optical Densities,MCF7; Log10 Concentration −5.0 Molar,0.316
same,Percent Growth,MCF7; Log10 Concentration −5.0 Molar,−1%
same,Mean Optical Densities,MCF7; Log10 Concentration −6.0 Molar,0.758
same,Percent Growth,MCF7; Log10 Concentration −6.0 Molar,42%
same,Mean Optical Densities,MCF7; Log10 Concentration −7.0 Molar,0.937
same,Percent Growth,MCF7; Log10 Concentration −7.0 Molar,60%
same,Mean Optical Densities,MCF7; Log10 Concentration −8.0 Molar,0.959
same,Percent Growth,MCF7; Log10 Concentration −8.0 Molar,62%
same,TGI,HS 578T,>1.00E−4 Molar
same,GI50,HS 578T; Homo sapiens,10.4 µM
same,CC50,HS 578T; [1],> 100 µM
same,Mean Optical Densities,HS 578T; Log10 Concentration −4.0 Molar,0.834
same,Percent Growth,HS 578T; Log10 Concentration −4.0 Molar,17%
same,Mean Optical Densities,HS 578T; Log10 Concentration −5.0 Molar,1.018
same,Percent Growth,HS 578T; Log10 Concentration −5.0 Molar,51%
same,Mean Optical Densities,HS 578T; Log10 Concentration −6.0 Molar,1.188
same,Percent Growth,HS 578T; Log10 Concentration −6.0 Molar,82%
same,Mean Optical Densities,HS 578T; Log10 Concentration −7.0 Molar,1.267
same,Percent Growth,HS 578T; Log10 Concentration −7.0 Molar,96%
same,Mean Optical Densities,HS 578T; Log10 Concentration −8.0 Molar,1.222
same,Percent Growth,HS 578T; Log10 Concentration −8.0 Molar,88%
